The source of these data is patent US10526646B2, “Chromogenic peroxidase substrates” (Dako Denmark A/S, priority 2015, dated 2020).

Each structure is given as a SMILES string. In brackets after ≈: the same amount, converted by molar mass.

In general, solubility refers to how much of the substance goes into solution per volume. Higher therefore signals much dissolved substance.

Data set [1] addresses T1, HRP (Armoracia rusticana, UniProt P00433).
T1 construct: purchased Dako K4061
T1 sequence (P00433 31-338): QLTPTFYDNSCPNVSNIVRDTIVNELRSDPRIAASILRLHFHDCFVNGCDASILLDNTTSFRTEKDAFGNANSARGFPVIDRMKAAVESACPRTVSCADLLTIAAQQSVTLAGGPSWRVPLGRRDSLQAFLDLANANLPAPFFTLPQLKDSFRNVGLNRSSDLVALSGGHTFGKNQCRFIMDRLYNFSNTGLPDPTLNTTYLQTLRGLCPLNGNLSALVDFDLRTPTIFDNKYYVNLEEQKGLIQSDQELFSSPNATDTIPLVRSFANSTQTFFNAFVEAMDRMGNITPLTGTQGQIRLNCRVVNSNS
The data set is described as follows: IHC staining of FFPE human tissues and Her2 control cell lines, Envision+ Dual link HRP visualization, DAB as reference. Also noted: species or system horse radish. As to conditions: for colour of IHC stain / stain intensity and crispness compared with DAB: tested in 0.4 to 1 mM; for stain intensity and crispness compared with DAB: low and medium expression targets; for IHC staining performance of Rhodamine 6G derivatives with different 4-hydroxy cinnamic acid derivatives: peroxidase substrate moiety varied.

The nature of data set [2]: UV-VIS absorbance maxima of chromogenic conjugates and mixtures. Type of data set: physicochemical. As for the experimental part: “Spectrally narrow” refers to a chromogen having less that 50 nm broadness at its maximum absorbance at half peak height by UV-VIS spectroscopy, measured in +99% water at pH, 6-8 in 10 μM concentration. A “magenta chromogen” is a spectrally narrow chromogen with peak absorbance between 525 and 530 nm, measured in +99% water at pH, 6.0-8.0 in 10 μM concentration. A “greenish-yellow chromogen” is a chromogen with peak absorbance below 475 nm and less than 10% absorbance at 530 nm or above relative to the peak absorbance, measured in +99% water at pH, 6.0-8.0 in 10 μM concentration. A “yellow chromogen” is a chromogen with peak absorbance below 505 nm and less than 10% absorbance at 530 nm or above relative to the peak absorbance, measured in +99% water at pH, 6.0-8.0 in 10 μM concentration. A “cyan chromogen” is a chromogen having maximal absorbance above 615 nm and less than 10% relative absorbance at any wavelength between 530 and 400 nm relative to the peak absorbance, measured in +99% water at pH, 6.0-8.0 m 10 μM concentration. An “orange chromogen” is a “spectrally narrow” chromogen that has maximum absorbance between 495 and 520 nm, measured in +99% water at pH, 6-8 in 10 μM concentration. A “dichroic chromogen” is a chromogen that has at least two absorbance maxima, separated by a local minimum at least 50 nm wide and one further global minimum between 390 and 700 nm measured in water between pH 6 and 8.

Data set [3] in a line: Solubility in substrate buffer as function of percentage of NMP. Type of data set: physicochemical. The method, then: Only Compound 6 having a piperazine amide stands out by absorbing at 536 nm, around 5 nm above the esters comprising Compounds 2, 13, 14 and 15 all with abs max within 531-533 nm. […] Addition of NMP to the buffer in all cases increased chromogen solubility. See result table below of the solubility of 2, 13 and 15 as function of percentage of NMP as organic co solvent, 0% representing neat aqueous buffer 50 mM imidazole: HCl, pH 6.8, 3% and 10% said percent.

In data set [4] the target is T1, HRP. The data set is described as follows: Tissue staining with mixtures of chromogens in chromogen buffer. Also noted: species or system horse radish. As to conditions: alone.
Where [5] appears, read: imidazole:HCl buffer (substrate buffer) with 3% NMP, aqueous buffer, 3% NMP in 50 mM imidazole:HCl pH 6.8.
The mark [6] stands for this setting: imidazole:HCl buffer (substrate buffer) with 10% NMP, aqueous with cosolvent or surfactant or cyclodextrin, 10% NMP in 50 mM imidazole:HCl pH 6.8.
Setting [7] is: imidazole:HCl buffer (substrate buffer), 0% NMP, neat aqueous buffer 50 mM imidazole:HCl pH 6.8.

Consider `CC/N=c1\cc2oc3cc(NCC)c(C)cc3c(-c3ccccc3C(=O)OCC(=O)NCCNC(=O)/C=C/c3ccc(O)cc3)c-2cc1C` [Compound 13, Rho6G-L6-Cou], for which the “colour of IHC stain” value at HRP [1] was “red stains”. Moreover, the “stain intensity and crispness compared with DAB” value at HRP [1] was “matched DAB in intensity and crispness”. Also, in data set [2], the “Absp nm (max)” value was found to be 532 nm. In addition, the solubility is 900 µM (≈ 595 µg/mL) in data set [3] (setting [5]), 1800 µM (≈ 1190 µg/mL) in data set [3] (setting [6]) and 500 µM (≈ 330 µg/mL) in data set [3] (setting [7]). For the same molecule, the “solubility in the substrate buffer relative to Compound 2” value in data set [3] is “reduced solubility”.
Regarding `O=C(/C=C/c1ccc(O)cc1)NCCOCCOCCNC(=O)COC(=O)c1ccccc1C1=c2cc3c4c(c2Oc2c1cc1c5c2CCCN5CCC1)CCC[N+]=4CCC3` [Compound 5, Rhodamine101-L12-Cou], in data set [2], the “Absp nm (max)” value is recorded as 584 nm.
On to `CCN(CC)c1ccc(C(=C2C=CC(=[N+](CC)CC)C=C2)c2cc(OCC(=O)NCCOCCOCCNC(=O)/C=C/c3ccc(O)cc3)c(S(=O)(=O)O)cc2S(=O)(=O)O)cc1` [Compound 35], for which the absorbance maximum in data set [2] (in neutral water) is listed as 640 nm.
Consider `O=C(/C=C/c1ccc(O)cc1)NCCOCCOCCNC(=O)COC(=O)c1ccccc1-c1c2cc(Cl)c(=O)cc-2oc2cc(O)c(Cl)cc12` [Compound 11, 2,7Dichloro-Flu-L12-Cou], for which, in data set [2], the “Absp nm (max)” value was 517 nm.
Take `CC/N=c1\cc2oc3cc(NCC)c(C)cc3c(-c3ccccc3C(=O)OCC(=O)NCCOCCOCCNC(=O)COCC(=O)NCCOCCOCCNC(=O)/C=C/c3ccc(O)cc3)c-2cc1C` [Compound 15, Rho6G-L27-Cou]: the “colour of IHC stain” value at HRP [1] is listed as “deep blue stains”. Further, on HRP [1], the “stain intensity and crispness compared with DAB” value was “more than matched DAB in intensity and crispness”. Further, the “Absp nm (max)” value in data set [2] is reported as 533 nm. In addition, the solubility is 1900 µM (≈ 1890 µg/mL) in data set [3] (setting [5]), 6000 to 7000 µM (≈ 5970 to 6970 µg/mL) in data set [3] (setting [6]) and 1700 µM (≈ 1690 µg/mL) in data set [3] (setting [7]). The “solubility in the substrate buffer relative to Compound 2” value in data set [3] was “significantly increased solubility”.
In the case of `O=C(O)COc1ccc2c(-c3ccccc3C(=O)OCC(=O)NCCOCCOCCNC(=O)/C=C/c3ccc(O)cc3)c3ccc(=O)cc-3oc2c1` [Compound 9, (O-carboxymethyl)-Flu-L12-Cou], at HRP [1], the “colour of IHC stain” value is given as “slightly greenish yellow stains”; the “stain intensity and crispness compared with DAB” value is “almost matched DAB in intensity”. For the same molecule, the “Absp nm (max)” value in data set [2] was determined as 458 nm. On HRP [4], the “colour of stain of compound alone” value is recorded as “unpleasing greenish yellow”.
Regarding `O=C(/C=C/c1ccc(O)cc1)NCCOCCOCCNC(=O)COC(=O)c1ccccc1-c1c2ccc(=O)cc-2oc2cc(O)ccc12` [Compound 10, Flu-L12-Cou], the “Absp nm (max)” value in data set [2] turned out to be 503 nm. Moreover, the “colour of stain of compound alone” value on HRP [4] is on record as “brownish hue”.
In the case of `CC/N=c1\cc2oc3cc(NCC)c(C)cc3c(-c3ccccc3C(=O)N3CCN(C(=O)c4ccccc4-c4c5ccc(=O)cc-5oc5cc(OCC(=O)NCCOCCOCCNC(=O)OC(C)(C)C)ccc45)CC3)c-2cc1C` [Formula XIVb], the “colour of the compound as chromogen” value in data set [2] is reported as “orange-red color”.
On to `CC/N=c1\cc2oc3cc(NCC)c(C)cc3c(-c3ccccc3C(=O)OCC(=O)NCCOCCOCCNC(=O)/C=C/c3cc(OC)c(O)c(OC)c3)c-2cc1C` [Compound 19, Rhodamine 6G-L12-Sin], for which the “IHC staining performance of Rhodamine 6G derivatives with different 4-hydroxy cinnamic acid derivatives” value at HRP [1] is listed as “performed poorly”. In addition, the “Absp nm (max)” value in data set [2] worked out at 531 nm.
Turning to `CC/N=c1\cc2oc3cc(NCC)c(C)cc3c(-c3ccccc3C(=O)N3CCN(CC(=O)NCCOCCOCCNC(=O)/C=C/c4ccc(O)cc4)CC3)c-2cc1C` [Compound 6, Rhodamine 6G-Pip-L12-Cou], at HRP [1], the “colour of IHC stain” value was “slightly purplish red stains”; the “stain intensity and crispness compared with DAB” value is “matched DAB in intensity and crispness”. In addition, the “Absp nm (max)” value in data set [2] is 536 nm. Also, the “solubility in the substrate buffer relative to Compound 2” value in data set [3] is reported as “significantly increased solubility”.
As to `CC/N=c1\cc2oc3cc(NCC)c(C)cc3c(-c3ccccc3C(=O)OCC(=O)NCCOCCOCCNC(=O)/C=C/c3ccc(O)cc3O)c-2cc1C` [Compound 17, Rhodamine 6G-L12-2,4-OH-Cin], on HRP [1], the “IHC staining performance of Rhodamine 6G derivatives with different 4-hydroxy cinnamic acid derivatives” value is on record as “strong stains but also some background”. The “Absp nm (max)” value in data set [2] was 531 nm.
Consider `CNCCNC` [Compound 34A, N,N′-dimethyl ethylenediamine], for which the “absorbance of Rhodamine 6G secondary amide / ester derivatives” value in data set [2] stood at 531 nm.
In the case of `CCN(CC)c1ccc2c(-c3ccccc3C(=O)OCC(=O)NCCOCCOCCNC(=O)/C=C/c3ccc(O)cc3)c3ccc(=[N+](CC)CC)cc-3oc2c1` [Compound 4, RhodamineB-L12-Cou], at HRP [1], the “colour of IHC stain” value is “purple stains”; the “stain intensity and crispness compared with DAB” value was “matched DAB in intensity and crispness”. The “Absp nm (max)” value in data set [2] turned out to be 561 nm.
On to `CC/N=c1\cc2oc3cc(NCC)c(C)cc3c(-c3ccccc3C(=O)OCC(=O)NCCOCCOCCNC(=O)/C=C/c3ccc(O)c(O)c3)c-2cc1C` [Compound 16, Rhodamine 6G-L12-Caf], for which the “IHC staining performance of Rhodamine 6G derivatives with different 4-hydroxy cinnamic acid derivatives” value at HRP [1] is listed as “performed poorly”. Besides, the “Absp nm (max)” value in data set [2] is on record as 531 nm.
As to `CN(C)c1ccc2c(-c3ccccc3C(=O)N3CCN(CC(=O)NCCOCCOCCNC(=O)/C=C/c4ccc(O)cc4)CC3)c3ccc(=[N+](C)C)cc-3oc2c1` [Compound 7, TM-Rhodamine-Pip-L12-Cou], the “Absp nm (max)” value in data set [2] amounted to 561 nm.
`CC/N=c1\cc2oc3cc(NCC)c(C)cc3c(-c3ccccc3C(=O)OCCN3CCN(CC(=O)NCCOCCOCCNC(=O)/C=C/c4ccc(O)cc4)CC3)c-2cc1C` [Compound 14, Rhodamine 6G-Et-Pip-L12-Cou]: on HRP [1], the “colour of IHC stain” value is on record as “red stains”; the “stain intensity and crispness compared with DAB” value was “matched DAB in intensity and crispness”. Also, the “Absp nm (max)” value in data set [2] was 531 nm. The “solubility in the substrate buffer relative to Compound 2” value in data set [3] was “significantly increased solubility”.
`N=c1ccc2c(-c3ccccc3C(=O)OCC(=O)NCCOCCOCCNC(=O)/C=C/c3ccc(O)cc3)c3ccc(N)cc3oc-2c1` [Compound 1, Rhodamine 110-L12-Cou]: in data set [2], the “Absp nm (max)” value is 505 nm.
Consider `O=C(/C=C/c1ccc(O)cc1)NCCOCCOCCNC(=O)CN1CCN(C(=O)c2ccccc2-c2c3ccc(=O)cc-3oc3cc(O)ccc23)CC1` [Compound 12, Flu-Pip-L12-Cou], for which the “Absp nm (max)” value in data set [2] was 508 nm.
`CC/N=c1\cc2oc3cc(NCC)c(C)cc3c(-c3ccccc3C(=O)N3CCN(C(=O)c4ccc(-c5c6ccc(=O)cc-6oc6cc(O)ccc56)c(C(=O)O)c4)CC3)c-2cc1C` [6G compound]: in data set [2], the “colour of the compound as chromogen” value is recorded as “orange”.
Consider `CN(C)c1ccc2c(-c3ccccc3C(=O)OCC(=O)NCCOCCOCCNC(=O)/C=C/c3ccc(O)cc3)c3ccc(=[N+](C)C)cc-3oc2c1` [Compound 3, TetramethylRhodamine-L12-Cou], for which, on HRP [1], the “colour of IHC stain” value is listed as “slightly redish purple stains”; the “stain intensity and crispness compared with DAB” value is “more than matched DAB in intensity and crispness”. Besides, the “Absp nm (max)” value in data set [2] came to 556 nm.
Take `CC/N=c1\cc2oc3cc(NCC)c(C)cc3c(-c3ccccc3C(=O)OCC(=O)NCCOCCOCCNC(=O)/C=C/c3ccc(O)c(OC)c3)c-2cc1C` [Compound 18, Rhodamine 6G-12-Fer]: the “IHC staining performance of Rhodamine 6G derivatives with different 4-hydroxy cinnamic acid derivatives” value on HRP [1] was “performed acceptably”. For the same molecule, the “Absp nm (max)” value in data set [2] is given as 531 nm.
